From US11130724B2, “Compound, resin, composition, resist pattern formation method, and circuit pattern formation method” (Mitsubishi Gas Chemical Company, Inc., priority 2015, dated 2021)

Experiment: Solubility test in propylene glycol monomethyl ether (PGME)
Conditions: 5% by mass in PGME, 5° C., 30 days
Experimental: A compound was dissolved at 5% by mass in propylene glycol monomethyl ether (PGME) at 23° C. Then, the solution was left to stand still at 5° C. for 30 days.
Evaluation A: No precipitate was visually confirmed.
Evaluation C: Precipitates were visually confirmed.

SMILES | solubility (summary in words of Table 7)
CC(c1ccc(-c2ccccc2)cc1)(c1c(O)ccc2ccccc12)c1c(O)ccc2ccccc12 [BiN-1] | good
CC(c1ccc(-c2ccccc2)cc1)(c1c(O)ccc2cc(O)ccc12)c1c(O)ccc2cc(O)ccc12 [BiN-2] | good
CC(c1ccc(-c2ccccc2)cc1)(c1c(O)ccc2ccc(O)cc12)c1c(O)ccc2ccc(O)cc12 [BiN-3] | good
CC(c1ccc(C2CCCCC2)cc1)(c1c(O)ccc2cc(O)ccc12)c1c(O)ccc2cc(O)ccc12 [BiN-4] | good
CC(c1ccc(-c2ccccc2)cc1)(c1ccc(O)c(-c2ccccc2)c1)c1ccc(O)c(-c2ccccc2)c1 [BiP-1] | good
CC(c1ccc(-c2ccccc2)cc1)(c1cc(-c2ccc(O)cc2)ccc1O)c1cc(-c2ccc(O)cc2)ccc1O [BiP-2] | good
CC(c1ccc(-c2ccccc2)cc1)(c1ccc(O)c(-c2ccccc2O)c1)c1ccc(O)c(-c2ccccc2O)c1 [BiP-3] | good
CC(c1ccc(C2CCCCC2)cc1)(c1ccc(O)c(-c2ccccc2O)c1)c1ccc(O)c(-c2ccccc2O)c1 [BiP-4] | good
CC(c1ccc(O)cc1)(c1ccc(O)cc1)c1ccc(C2CCCCC2)cc1 [P-2] | good
CC1(c2ccc(-c3ccccc3)cc2)c2ccc(O)cc2Oc2cc(O)ccc21 [P-3] | good
CC1(c2ccc(C3CCCCC3)cc2)c2ccc(O)cc2Oc2cc(O)ccc21 [P-4] | good
CC1(c2ccc(-c3ccccc3)cc2)c2c(ccc3cc(O)ccc23)Oc2ccc3cc(O)ccc3c21 [XBiN-1] | good
CC1(c2ccc(-c3ccccc3)cc2)c2c(ccc3ccc(O)cc23)Oc2ccc3ccc(O)cc3c21 [XBiN-2] | good
CC1(c2ccc(C3CCCCC3)cc2)c2c(ccc3cc(O)ccc23)Oc2ccc3cc(O)ccc3c21 [XBiN-3] | good
